One block for each molecule: values may come before it.
Columns and labels:
CFP-T7 [1] = test: Surfactant resistance of amadoriase in presence of buffering agents; type: biochemical, genus Coniochaeta; details: for CFP-T7 Residual Activity (%): 0.01% CTAC, purified CFP-T7; for amadoriase stabilizing effect of the buffer (in words): CFP-T7 in the presence of surfactant
Experimental: In the above surfactant resistance measuring method, the residual activity of an amadoriase is measured by using various buffers in place of a 30 mM MES/21 mM Tris buffer solution. In this manner, the contribution of the buffer to the amadoriase residual activity can be evaluated. For example, in place of the 30 mM MES/21 mM Tris buffer solution (pH 6.5), e.g., a phosphate buffer solution (pH 7.0), a citrate buffer solution (pH 6.0), a HEPES buffer solution (pH 7.0) or an ACES buffer solution (pH 7.0) can be used. Other conditions and procedure can be the same as in the above surfactant resistance measuring method.
It was studied whether the surfactant resistance of an amadoriase is enhanced or not when a buffering agent other than a 30 mM MES/21 mM Tris buffering agent (pH 6.5) was used. Using CFP-T7 purified as described above as a sample, the final concentration of CTAC was set at 0.01% to evaluate the surfactant resistance of CFP-T7 according to the measurement method for surfactant resistance in Example 1 in the presence of any of various buffering agents, specifically a phosphate buffering agent containing phosphoric acid and potassium phosphate (pH 7.0), a citrate buffering agent containing citric acid and sodium citrate (pH 6.0), an MES buffering agent containing MES and it sodium salt (pH 7.0), an HEPES buffering agent containing HEPES and its sodium salt (pH 7.0), and an ACES buffering agent containing ACES and its sodium salt (pH 7.0), in place of the 30 mM MES/21 mM Tris buffering agent (pH 6.5).

CFP-T7 [2] = test: Surfactant resistance of amadoriase during addition of each stabilizer (CFP-T7); type: biochemical, genus Coniochaeta; details: 500 mM HEPES (pH 7.0), 0.01% CTAC
Experimental: In the above surfactant resistance measuring method, various stabilizers are added and the residual activity of an amadoriase is measured in order to evaluate the effect of the stabilizers. […] The concentration sufficient to provide a buffer capacity to a solution refers to the concentration at which pH is maintained within a predetermined range (for example pH5 to 10, pH6 to 8) without having pH change due to other reagents added to the solution. A concentration insufficient to provide a buffer capacity to a solution refers to the concentration at which pH changes by addition of other reagents to the solution and pH falls outside a particular range. These concentrations vary depending upon the type and amount of other reagents to be added to a solution; however, a person skilled in the art can appropriately determine the concentration by conventional methods. Other conditions and procedure can be the same as in the above surfactant resistance measuring method.
It was studied whether or not the addition of any of various stabilizers enhanced the surfactant resistance of an amadoriase. Phosphoric acid, a tricarboxylic acid (e.g., citric acid), a dicarboxylic acid (e.g., malic acid, maleic acid, citraconic acid, malonic acid, glutaric acid, or tartaric acid), a monpcarboxylic acid (e.g., acetic acid), MES, MOPS, MOPSO, or ammonium sulfate was used as a stabilizer. As a Comparative Example, CHES was used. To prevent change in pH when adding the stabilizer, 500 mM HEPES (pH 7.0) was used as a buffer solution; CFP-T7 purified as described above was used as a sample; the final concentration of CTAC was set at 0.01%; and any of the stabilizers was further added to evaluate the surfactant resistance of CFP-T7 according to the measurement method for surfactant resistance in Example 1. Using a 500 mM HEPES (pH 7.0) buffering agent and CFP-D2 purified as described above as a sample, any of the stabilizers was further added, and the surfactant resistance of CFP-D2 was evaluated according to the measurement method for surfactant resistance in Example 1 although under more harsh surfactant treatment conditions in which the final concentration of CTAC was set at 0.08% and the treatment temperature at 37° C.

PnFX = test: Surfactant resistance of PnFX during addition of each stabilizer; type: biochemical, Phaeosphaeria nodorum; details: Stabilizer 20 mM; 300 mM HEPES (pH 7.0); 0.04% CTAC
Experimental: The same stabilizers as those described above were used as stabilizers; 300 mM HEPES (pH 7.0) was used as a buffering agent to prevent a change in pH when the stabilizers was each added; PnFX purified as described above was used as a sample; the final concentration of CTAC was set at 0.04%; and the surfactant resistance of PnFX was evaluated as described above.

[3] = Measurement of fructosyl peptide sample (αFVH) under mixing of CTAC, change in absorbance at 751 nm; type: biochemical; details: for Amount of Change in Absorbance at Wavelength of 751 nm under Mixing of Each Concentration of CTAC: as in Example 5, Table 7
Experimental: The purified enzyme of CFP-T7 and CFP-D7 obtained in Example 3-2 was used to measure a sample as shown below. The activity values of CFP-T7 and CFP-D7 were determined using (reagent 1) adjusted to pH 7.0 with αFVH at a final concentration of 5 mM as a substrate according to the method for measuring amadoriase activity.
(Reagent 4) αFVH (125 mg) was dissolved in ion-exchanged water, the volume of the solution was fixed to 10 ml, and thereby a 30 mM substrate solution was obtained. In addition, the resultant was diluted by 1/714 with a CTAC solution to provide a 42 μM αFVH/0% to 0.2% CTAC solution.
(Reagent 6) (50 μl) was added to a mixed solution of 135 μl of (reagent 5) warmed at 37° C. for 5 minutes in advance and 25 μl of the sample prepared in (11) above to start reaction, and absorbance at a wavelength of 751 nm after reaction at 37° C. for 5 minutes was measured using an automated analyzer, Bio Majesty JCA-BM1650 (from JEOL Ltd.). Absorbance (reagent blank) at a wavelength of 751 nm measured by a similar operation for (reagent 4) prepared using ion-exchanged water in place of the substrate solution was used as a control to calculate the amount of change in absorbance (difference) when each sample was measured, using the following equation. The final concentration of a colorimetric substrate, DA-64, was 0.15 mM; the final concentration of αFVH in the case of the presence of a substrate was 5 μM; and the length (optical path) of the cell used for absorbance measurement was 1 cm. Amount of change in absorbance=ΔAes−Ae0
The amount of change in absorbance when αFVH/0% to 0.2% CTAC were used as samples was calculated.
The purified preparations of amadoriases obtained as described above were used as samples to measure αFVH under the mixing of CTAC using PnFX and NvFX as in Example 5.

[4] = Buffer Solution 100 mM, pH 7.0 (citrate pH 6.0)

Molecule: NC(=O)CNCCS(=O)(=O)O [ACES, N-(2-acetamido)-2-aminoethanesulfonic acid]
CFP-T7 Residual Activity (%) (CFP-T7 [1]; Buffer Solution 20 mM, pH 7.0 (citrate pH 6.0)): 15.6%
CFP-T7 Residual Activity (%) (CFP-T7 [1]; [4]): 16.4%
CFP-T7 Residual Activity (%) (CFP-T7 [1]; Buffer Solution 200 mM, pH 7.0): 22.1%

Molecule: CC(=O)O [Acetate, acetic acid]
CFP-T7 Residual Activity (%) (CFP-T7 [2]; Stabilizer 10 mM, Table 9-1): 8.9%
CFP-T7 Residual Activity (%) (CFP-T7 [2]; Stabilizer 20 mM, Table 9-1): 20.7%
CFP-T7 Residual Activity (%) (CFP-T7 [2]; Stabilizer 50 mM, Table 9-1): 52.4%
PnFX Residual Activity (%) (PnFX): 42.6%

Molecule: O=S(=O)(O)CCNC1CCCCC1 [CHES, N-cyclohexyl-2-aminoethane sulfonic acid, reference compound]
stabilizing action of the stabilizer (in words) (CFP-T7 [2]; CFP-T7): did not have any stabilizing action
CFP-T7 Residual Activity (%) (CFP-T7 [2]; Stabilizer 20 mM, Table 9-2): 3.0%

Molecule: C/C(=C/C(=O)O)C(=O)O [Citraconate, citraconic acid]
CFP-T7 Residual Activity (%) (CFP-T7 [2]; Stabilizer 2 mM, Table 9-2): 18.5%
CFP-T7 Residual Activity (%) (CFP-T7 [2]; Stabilizer 10 mM, Table 9-2): 89.1%

Molecule: O=C(O)CCCC(=O)O [Glutarate, glutaric acid]
CFP-T7 Residual Activity (%) (CFP-T7 [2]; Stabilizer 2 mM, Table 9-2): 4.5%
CFP-T7 Residual Activity (%) (CFP-T7 [2]; Stabilizer 10 mM, Table 9-2): 55.9%

Molecule: O=S(=O)(O)CCN1CCN(CCO)CC1 [HEPES, 4-2-hydroxyethyl-1-piperazine-ethanesulfonic acid, reference compound]
CFP-T7 Residual Activity (%) (CFP-T7 [1]; Buffer Solution 50 mM, pH 7.0 (citrate pH 6.0)): 13.2%
CFP-T7 Residual Activity (%) (CFP-T7 [1]; [4]): 13.2%
CFP-T7 Residual Activity (%) (CFP-T7 [1]; Buffer Solution 150 mM, pH 7.0): 12.2%
CFP-T7 Residual Activity (%) (CFP-T7 [1]; Buffer Solution 300 mM, pH 7.0): 9.6%
amadoriase stabilizing effect of the buffer (in words) (CFP-T7 [1]): does not have an amadoriase stabilizing effect
amadoriase stabilizing effect of the buffer (in words) (CFP-T7 [1]; listed as HEPES buffering agent): not observed

B1: NvFX: ketoamine oxidase derived from Neocosmospora vasinfecta, SEQ ID NO: 38 (protein, listed as Neocosmospora vasinfecta)
chain: MTTPRKETTVLIIGGGGTIGSSTALHLLRAGYTPSNITVLDTYPIPSAQSAGNDLNKIMGIRLRNKVDLQLSLEARDMWRNDALFRPFFHNTGRLDCESSAEGVEGLRREYQKLVEAGVGLEETHEWLDSEEAILEKAPLLQREEIEGWKAIWSEEGGWLAAAKAINAIGEELQRQGVRFGFGGAGSFKRPLFADDGTTCIGVETVDGTQYHADKVVLAAGAWSPALVDLEEQCCSKAWVYAHMQLTPEEAAVYKGCPVVYHGDVGFFFEPNENGVIKVCDEFPGFTRFKQHQPYGAPAPKPVSVPRSHAKHPTDTYPDASEESIKRAVSTFLPRFKDKPLFNRALCWCTDTADSALLICEHPRWKNFILATGDSGHSFKLLPIIGKHVVELVEGRLADDLAEAWRWRPGQGDARKSIRAAPAKDLADMPGWKHDQDSESR
measurement of αFVH under the mixing of CTAC (in words) [3]: αFVH could not accurately be measured
Amount of Change in Absorbance at Wavelength of 751 nm under Mixing of Each Concentration of CTAC ([3]; Mixing of CTAC 0%): 0.118
Amount of Change in Absorbance at Wavelength of 751 nm under Mixing of Each Concentration of CTAC ([3]; Mixing of CTAC 0.01%): 0.013
Amount of Change in Absorbance at Wavelength of 751 nm under Mixing of Each Concentration of CTAC ([3]; Mixing of CTAC 0.02%): 0.013
Amount of Change in Absorbance at Wavelength of 751 nm under Mixing of Each Concentration of CTAC ([3]; Mixing of CTAC 0.04%): 0.007
Amount of Change in Absorbance at Wavelength of 751 nm under Mixing of Each Concentration of CTAC ([3]; Mixing of CTAC 0.06%): 0.004
Amount of Change in Absorbance at Wavelength of 751 nm under Mixing of Each Concentration of CTAC ([3]; Mixing of CTAC 0.1%): 0.003
Amount of Change in Absorbance at Wavelength of 751 nm under Mixing of Each Concentration of CTAC ([3]; Mixing of CTAC 0.2%): 0.001

Further lines, results first:

CFP-T7 Residual Activity (%) (CFP-T7 [2]; Stabilizer 10 mM, Table 9-2): 9.0%
CFP-T7 Residual Activity (%) (CFP-T7 [2]; Stabilizer 20 mM, Table 9-2): 23.5%
Molecule: O=S(=O)(O)CC(O)CN1CCOCC1 (centres unmarked) [MOPSO, 2-hydroxy-3-morpholino-propanesulfonic acid]

CFP-T7 Residual Activity (%) (CFP-T7 [2]; Stabilizer 2 mM, Table 9-2): 15.5%
CFP-T7 Residual Activity (%) (CFP-T7 [2]; Stabilizer 10 mM, Table 9-2): 81.5%
Molecule: O=C(O)/C=C\C(=O)O [Maleate, maleic acid]

CFP-T7 Residual Activity (%) (CFP-T7 [2]; Stabilizer 2 mM, Table 9-2): 10.8%
CFP-T7 Residual Activity (%) (CFP-T7 [2]; Stabilizer 10 mM, Table 9-2): 77.3%
Molecule: O=C(O)CC(=O)O [Malonate, malonic acid]

CFP-T7 Residual Activity (%) (CFP-T7 [2]; Stabilizer 2 mM, Table 9-2): 5.3%
CFP-T7 Residual Activity (%) (CFP-T7 [2]; Stabilizer 10 mM, Table 9-2): 70.0%
Molecule: O=C(O)C(O)C(O)C(=O)O (centres unmarked) [Tartrate, tartaric acid]

Source: US11549134B2, “Modified amadoriase and method for producing the same, agent for improving surfactant resistance of amadoriase and composition for measuring HbA1c using the same” (Kikkoman Corporation, priority 2013, dated 2023)
